{"source": "patent US20090162351A1", "about": "“Transdiscal administration of inhibitors of p38 MAP kinase” (DePuy Spine, Inc., priority 2007, published 2009)", "tested_on": "injured bovine articular cartilage explants in inflammatory medium", "assay": "Drop tower model: GAG degradation in injured cartilage explants", "format": "cell-based", "set-up": "inhibition of GAG release vs no treatment explant: dose or concentration left out as unconfirmed", "settings": "for Inhibition of GAG degradation (in words): Table 4, injured cartilage explants, inflammatory conditions; for efficacy in inhibiting GAG release (in words): drop tower model; for Inhibition of GAG degradation: at 0.1-1 μM", "from_the_text": "In order to assess cartilage breakdown by inflammatory mediators and the effect of antagonists on those mediators, a cartilage impact model (the “drop tower model”) was established using a drop tower device to apply a peak compressive stress to a cartilage sample of about 20-30 MPa over an area of about 11-15 mm^2. Advantages of this model included its clinical relevance due to its potential to mimic several key parameters of osteoarthritis such as inflammatory cell mediators (by co-culturing with inflammatory cells), and induction of trauma to create the cartilage damage.\nIn the “drop tower design model” cartilage explants were first injured and then cultured in inflammatory medium to mimic the progression of joint impact trauma linked to cartilage degeneration and osteoarthritis. The approach of the model is to artificially produce cellular damage without gross structural alterations, and to determine how the cells respond to such an insult over the ensuing days when treated with or without potential therapeutic agents.\nThe device comprises a vertical rail that guides a sliding weight from 0.1 kg to 3 kg directly onto a force transducer which is situated at the bottom of the device. A sphere-shaped 2 mm indenter resting on a specimen is located at the bottom of the vertical rail. The indenter is held by a stop screw. The specimen is rigidly attached to a tissue holder underneath the indenter, to avoid side movements, the specimen is rigidly attached to the tissue holder. In this manner, the force transducer transduces a force indirectly onto the specimen. Adjusting the weight of a mass and height from which the mass drops varies the magnitude of the intended impact. For example, a weight mass (e.g., […]) held by a weight holder can be released from a height of e.g., 36 cm and dropped onto the force transducer.\nSamples for compound evaluation were tested using either of two different methods to induce inflammatory conditions. One method utilized media conditioned from peripheral blood mononuclear cells (PBMCs) stimulated with LPS (“+LPS”) or non-inflammatory media without LPS (“−LPS”). Another method utilized the absence or presence of a cocktail of cytokines.\nIn the first method, bovine or human PBMCs were freshly prepared using Ficoll gradient by Lampire Biological Laboratories, Inc. PBMCs in RPMI w/10% FCS at delivery were spun down at 1500 rpm for twenty minutes and the cell pellet was washed twice with 1×PBS to wash off the residual Ficoll. The cells were then resuspended at a density of 1×10^6/ml in RPMI supplemented with 10% FCS, 1× Antibiotics-Antimycotics. The suspension was divided into two aliquots. One aliquot was stimulated with 10 μg/ml of LPS and the other was not stimulated. Both aliquots were then incubated at 37° C., 5% CO2 for twenty-four to seventy-two hours. The conditioned media with or without LPS stimulation are collected, aliquoted, and stored in −80° C. for a maximum of three months. Each conditioned medium was assessed for levels of pro-inflammatory cytokines to ensure their secretion from PBMC. A representative cytokine, IL-6, was assayed by ELISA using a Human IL-6 Quantikine kit and it was shown that the LPS-stimulated medium had at least 10 ng/ml of IL-6, while IL-6 was undetectable in the unstimulated medium.\nIn the second method, the explants were cultured at 37° C., 5% CO2 either in stimulated or non-stimulated conditioned medium as described above or in defined medium containing DMEM supplemented with 1% FCS, 1× insulin-transferrin-sodium selenite media supplement and Antibiotics-Antimycotics in the presence or absence of a cocktail of cytokines containing 10 ng/ml of IL-1β, 100 ng/ml of TNFα and 5 ng/ml of IFN-γ. The compounds were solubilized in H2O, Ethanol or DMSO (10^−2 M) according to suppliers' instructions and further diluted with either conditioned medium stimulated with or without LPS to the required concentrations. DMSO concentrations in the culture media never exceeded 1%. […]", "key": {"[1]": {"settings": "Bos taurus, injured cartilage explants"}}}
{"compound": "CC(=O)Oc1cccc2c1C(=O)c1c(OC(C)=O)cc(C(=O)O)cc1C2=O", "note": "[Diacerein, reference compound]", "values": [{"measurement": "inhibition at 54 µM", "setting": "Bos taurus, at 54 μM, injured cartilage explants", "value": 100, "unit": "%"}, {"measurement": "proteoglycan degradation in injured cartilage induced by inflammatory mediators (in words)", "setting": "at high dosage, LPS-stimulated PBMC conditioned medium, five days", "value": "completely inhibited"}]}
{"compound": "OCCC#Cc1nc(-c2ccc(F)cc2)c(-c2ccncc2)n1CCCc1ccccc1", "note": "[JNJ 3026582 (RWJ 67657), 4-[4-(4-fluorophenyl)-1-(3-phenylpropyl)-5-(4-pyridinyl)-1H-imidazol-2-yl]-3-butyn-1-ol]", "values": [{"measurement": "Inhibition of GAG degradation (in words)", "value": "little"}, {"measurement": "efficacy in inhibiting GAG release (in words)", "value": "little efficacy"}]}
{"compound": "C[C@H](Nc1nccc(-c2c(-c3ccc(F)cc3)nc3nc(N)ccn23)n1)c1ccccc1", "note": "[JNJ 7583979 (RWJ 351958)]", "values": [{"measurement": "Inhibition of GAG degradation (in words)", "value": "little"}, {"measurement": "efficacy in inhibiting GAG release (in words)", "value": "little efficacy"}]}
{"compound": "CO[C@H]1C[C@@H]2CC[C@@H](C)[C@@](O)(O2)C(=O)C(=O)N2CCCC[C@H]2C(=O)O[C@H]([C@H](C)C[C@@H]2CC[C@@H](O)[C@H](OC)C2)CC(=O)[C@H](C)/C=C(\\C)[C@@H](O)[C@@H](OC)C(=O)[C@H](C)C[C@H](C)/C=C/C=C/C=C/1C", "note": "[Rapamycin, reference compound]", "values": [{"measurement": "Inhibition of GAG degradation", "setting": "injured cartilage explants", "value": 100, "unit": "% inh at 0.1-1 μM"}, {"measurement": "inhibition of GAG release vs no treatment explant", "setting": "five days", "value": "~84", "unit": "%"}]}
{"compound": "O=C(O)c1cc(O)c2c(c1)C(=O)c1cccc(O)c1C2=O", "note": "[Rhein, reference compound]", "values": [{"measurement": "inhibition at 35 µM", "setting": "Bos taurus, at 35 μM, injured cartilage explants", "value": 100, "unit": "%"}]}
{"compound": "CC(C(=O)O)c1ccc(C(=O)c2cccs2)cc1", "note": "(stereo not drawn) [Suprofen, reference compound]", "values": [{"measurement": "Inhibition of GAG degradation", "setting": "injured cartilage explants", "value": 100, "unit": "% inh at 0.1-1 μM"}]}
{"compound": "COc1ccc(-n2nc(CCC(=O)N(C)O)cc2-c2ccc(Cl)cc2)cc1", "note": "[Tepoxalin, reference compound]", "values": [{"measurement": "inhibition at 10 µM", "setting": "[1]", "value": 100, "unit": "%"}]}
{"compound": "Cc1ccc(C(=O)c2ccc(CC(=O)O)n2C)cc1", "note": "[Tolmetin, reference compound]", "values": [{"measurement": "inhibition at 10 µM", "setting": "[1]", "value": 60, "unit": "%"}]}
